# Data from patent US5424325A, “Aminoketone derivatives” (Mitsubishi Kasei Corporation, priority 1992, dated 1995).
# pIC50: −log10 of the molar value.
# Assays:
# m-calpain = biological target: T1, m-calpain (Rattus norvegicus, UniProt Q07009); assay: Measurement of inhibitory activity against thiol protease (m-calpain purified from rat brain); type: biochemical; settings: m-calpain purified from a brain of rat
# T1 construct: m-calpain was purified from a brain of rat; from tissue; host or cells: rat brain
# T1 sequence (Q07009 20-700 limits assumed): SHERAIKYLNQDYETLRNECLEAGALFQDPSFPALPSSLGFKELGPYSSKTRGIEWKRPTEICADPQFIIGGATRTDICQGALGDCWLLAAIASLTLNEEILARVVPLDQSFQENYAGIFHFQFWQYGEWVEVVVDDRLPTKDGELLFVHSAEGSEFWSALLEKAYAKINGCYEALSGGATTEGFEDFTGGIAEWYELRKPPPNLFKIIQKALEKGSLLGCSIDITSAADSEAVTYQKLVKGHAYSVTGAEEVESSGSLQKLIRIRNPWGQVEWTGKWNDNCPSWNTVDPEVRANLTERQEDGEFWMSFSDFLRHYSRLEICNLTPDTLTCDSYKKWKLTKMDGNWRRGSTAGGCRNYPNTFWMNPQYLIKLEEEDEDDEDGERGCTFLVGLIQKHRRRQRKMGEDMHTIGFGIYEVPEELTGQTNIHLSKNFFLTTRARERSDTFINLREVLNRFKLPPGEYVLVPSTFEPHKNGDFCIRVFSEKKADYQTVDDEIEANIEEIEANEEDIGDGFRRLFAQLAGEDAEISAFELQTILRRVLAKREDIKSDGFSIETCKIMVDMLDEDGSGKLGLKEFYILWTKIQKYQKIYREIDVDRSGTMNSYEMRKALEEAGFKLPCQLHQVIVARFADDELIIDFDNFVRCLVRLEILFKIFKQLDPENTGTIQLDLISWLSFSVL
# T1 sequence (Q64537 1-270 partner): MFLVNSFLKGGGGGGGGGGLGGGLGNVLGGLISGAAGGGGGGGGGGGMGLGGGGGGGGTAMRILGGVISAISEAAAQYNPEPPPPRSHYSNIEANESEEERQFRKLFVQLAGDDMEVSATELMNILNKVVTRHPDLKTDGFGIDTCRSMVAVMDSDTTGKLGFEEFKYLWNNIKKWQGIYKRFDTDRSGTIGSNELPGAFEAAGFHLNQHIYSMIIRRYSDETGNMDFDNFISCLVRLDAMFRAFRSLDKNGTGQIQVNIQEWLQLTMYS
# Procedure: Measurement of Inhibitory Activity against Thiol Protease
# Through the known method disclosed in Journal of Biological Chemistry, vol. 259, page 3210, 1984, m-calpain was purified from a brain of rat. The inhibitory activity against it was measured and determined according to the method disclosed in Journal of Biological Chemistry, vol. 259, page 12489, 1984.
# [1] = test system: microtubule-associated protein; settings: after the brain ischemia; cited from earlier work
# [2] = test system: brain trauma models of rat; settings: cited from earlier work
pIC50 (m-calpain),SMILES,further results
5.35,"COc1cccc(OCC(=O)N[C@@H](Cc2ccccc2)C(=O)CSCc2ccsc2)c1 [58 (No. 216), (S)-3-(3-methoxyphenoxyacetylamino)-4-phenyl-1-(3-thienylmethylthio)-2-butanone]",–
4.89,"CCCC[C@H](NC(=O)COc1cccc(OC)c1)C(=O)CSCc1ccsc1 [18 (No. 87), (S)-3-(3-methoxyphenoxyacetylamino)-1-(3-thienylmethylthio)-2-heptanone]",–
4.91,"CCCC[C@H](NC(=O)COc1ccccc1)C(=O)CSCc1ccsc1 [17 (No. 86), (S)-3-phenoxyacetylamino-1-(3-thienylmethylthio)-2-heptanone]",–

# Second part, the molecule before the results:
SMILES,pIC50 (m-calpain),further results
CC(C)CCNC(=O)[C@H](CC(C)C)NC(=O)[C@H]1O[C@@H]1C(=O)O [E-64-C],–,degradation of microtubule-associated protein [1]: inhibits the degradation of microtubule-associated protein after the brain ischemia
"O=C(COc1ccccc1)N[C@@H](Cc1ccccc1)C(=O)CSCc1ccco1 [38 (No. 171), (S)-1-furfurylthio-3-phenoxyacetylamino-4-phenyl-2-butanone]",4.77,–
CC(=O)N[C@@H](CC(C)C)C(=O)N[C@@H](CC(C)C)C(=O)N[C@H](C=O)CCCNC(=N)N [leupeptin],–,protection of axon [2]: can protect axon
"COc1ccc(/C=C/C(=O)N[C@@H](Cc2ccccc2)C(=O)CSCc2ccsc2)c(OC)c1 [60 (No. 219), (S)-3-(2,4-dimethoxycinnamoylamino)-4-phenyl-1-(3-thienylmethylthio)-2-butanone]",4.84,–
